ChEMBL document CHEMBL2203120, “Contribution to investigation of antimicrobial activity of styrylquinolines” (Bioorg Med Chem, 2012)
≈ marks a conversion by molar mass, not a printed value.

Tests used:
[1] = system: Staphylococcus epidermidis; assay: Antimicrobial activity against Staphylococcus epidermidis H 6966/08 after 48 hrs by broth microdilution method; assay type: functional; conditions: H 6966/08, 48 h
Trichosporon beigelii [2] = assay: Antimicrobial activity against Trichosporon beigelii 1188 after 24 hrs by broth microdilution test; assay type: functional; conditions: Trichosporon beigelii, 1188, 24 h
Pichia kudriavzevii [3] = assay: Antimicrobial activity against Candida krusei ATCC 6258 after 24 hrs by broth microdilution test; assay type: functional; conditions: ATCC 6258, 24 h
Staphylococcus aureus [4] = assay: Antimicrobial activity against Staphylococcus aureus CCM 4516/08 after 24 hrs by broth microdilution method; assay type: functional; conditions: CCM 4516/08, 24 h
Lichtheimia corymbifera [5] = assay: Antimicrobial activity against Absidia corymbifera 272 after 48 hrs by broth microdilution test; assay type: functional; conditions: Lichtheimia corymbifera, 272, 48 h
Nakaseomyces glabratus [6] = assay: Antimicrobial activity against Candida glabrata 20/I after 24 hrs by broth microdilution test; assay type: functional
Pichia kudriavzevii [7] = assay: Antimicrobial activity against Candida krusei ATCC 6258 after 48 hrs by broth microdilution test; assay type: functional; conditions: ATCC 6258, 48 h
Staphylococcus aureus [8] = assay: Antimicrobial activity against methicillin-resistant Staphylococcus aureus H 5996/08 after 48 hrs by broth microdilution method; assay type: functional; conditions: H 5996/08, 48 h
Candida albicans [9] = assay: Antimicrobial activity against Candida albicans ATCC 44859 after 48 hrs by broth microdilution test; assay type: functional; conditions: ATCC 44859, 48 h
Candida tropicalis [10] = assay: Antimicrobial activity against Candida tropicalis 156 after 24 hrs by broth microdilution test; assay type: functional; conditions: Candida tropicalis, 156, 24 h
Staphylococcus aureus [11] = assay: Antimicrobial activity against Staphylococcus aureus CCM 4516/08 after 48 hrs by broth microdilution method; assay type: functional; conditions: CCM 4516/08, 48 h
Nakaseomyces glabratus [12] = assay: Antimicrobial activity against Candida glabrata 20/I after 48 hrs by broth microdilution test; assay type: functional
Aspergillus fumigatus [13] = assay: Antimicrobial activity against Aspergillus fumigatus 231 after 24 hrs by broth microdilution test; assay type: functional; conditions: Aspergillus fumigatus, 231, 24 h
Candida albicans [14] = assay: Antimicrobial activity against Candida albicans ATCC 44859 after 24 hrs by broth microdilution test; assay type: functional; conditions: ATCC 44859, 24 h
Candida tropicalis [15] = assay: Antimicrobial activity against Candida tropicalis 156 after 48 hrs by broth microdilution test; assay type: functional; conditions: Candida tropicalis, 156, 48 h
Trichosporon beigelii [16] = assay: Antimicrobial activity against Trichosporon beigelii 1188 after 48 hrs by broth microdilution test; assay type: functional; conditions: Trichosporon beigelii, 1188, 48 h
Aspergillus fumigatus [17] = assay: Antimicrobial activity against Aspergillus fumigatus 231 after 48 hrs by broth microdilution test; assay type: functional; conditions: Aspergillus fumigatus, 231, 48 h
[18] = system: Trichophyton mentagrophytes; assay: Antimicrobial activity against Trichophyton mentagrophytes 445 after 72 hrs by broth microdilution test; assay type: functional; conditions: Trichophyton mentagrophytes, 445, 72 h
[19] = Lipophilicity, log P of compound by RP-HPLC analysis; assay type: physicochemical
Lichtheimia corymbifera [20] = assay: Antimicrobial activity against Absidia corymbifera 272 after 24 hrs by broth microdilution test; assay type: functional; conditions: Lichtheimia corymbifera, 272, 24 h
[21] = system: Trichophyton mentagrophytes; assay: Antimicrobial activity against Trichophyton mentagrophytes 445 after 120 hrs by broth microdilution test; assay type: functional; conditions: Trichophyton mentagrophytes, 445, 120 h
[22] = system: Staphylococcus epidermidis; assay: Antimicrobial activity against Staphylococcus epidermidis H 6966/08 after 24 hrs by broth microdilution method; assay type: functional; conditions: H 6966/08, 24 h
Staphylococcus aureus [23] = assay: Antimicrobial activity against methicillin-resistant Staphylococcus aureus H 5996/08 after 24 hrs by broth microdilution method; assay type: functional; conditions: H 5996/08, 24 h

| SMILES | MIC90 [1] [µM] | MIC80 (Trichosporon beigelii [2]) [µM] | MIC80 (Pichia kudriavzevii [3]) [µM] | MIC90 (Staphylococcus aureus [4]) [µM] | MIC50 (Lichtheimia corymbifera [5]) [µM] | MIC80 (Nakaseomyces glabratus [6]) [µM] | MIC80 (Pichia kudriavzevii [7]) [µM] | MIC90 (Staphylococcus aureus [8]) [µM] | MIC80 (Candida albicans [9]) [µM] | MIC80 (Candida tropicalis [10]) [µM] | MIC90 (Staphylococcus aureus [11]) [µM] | MIC80 (Nakaseomyces glabratus [12]) [µM] | MIC50 (Aspergillus fumigatus [13]) [µM] | MIC80 (Candida albicans [14]) [µM] | MIC80 (Candida tropicalis [15]) [µM] | MIC80 (Trichosporon beigelii [16]) [µM] | MIC50 (Aspergillus fumigatus [17]) [µM] | MIC50 [18] [µM] | logP [19] | MIC50 (Lichtheimia corymbifera [20]) [µM] | other results |
| --- | --- | --- | --- | --- | --- | --- | --- | --- | --- | --- | --- | --- | --- | --- | --- | --- | --- | --- | --- | --- | --- |
| Oc1ccccc1/C=C/c1ccc2cccc(O)c2n1 | 125 (≈ 32.9 µg/mL) | 31.2 (≈ 8.23 µg/mL) | 31.2 (≈ 8.23 µg/mL) | 62.5 (≈ 16.5 µg/mL) | > 500 | 31.2 (≈ 8.23 µg/mL) | 62.5 (≈ 16.5 µg/mL) | 125 (≈ 32.9 µg/mL) | 62.5 (≈ 16.5 µg/mL) | 125 (≈ 32.9 µg/mL) | 62.5 (≈ 16.5 µg/mL) | 31.2 (≈ 8.23 µg/mL) | 500 (≈ 132 µg/mL) | 31.2 (≈ 8.23 µg/mL) | 500 (≈ 132 µg/mL) | 62.5 (≈ 16.5 µg/mL) | > 500 | 31.2 (≈ 8.23 µg/mL) | 3.95 | 62.5 (≈ 16.5 µg/mL) | MIC50 [21]: 62.5 µM (≈ 16.5 µg/mL); MIC90 [22]: 62.5 µM (≈ 16.5 µg/mL); MIC90 (Staphylococcus aureus [23]): 62.5 µM (≈ 16.5 µg/mL) |
| Oc1ccc(/C=C/c2ccc3cccc(O)c3n2)c(O)c1 | 250 (≈ 69.8 µg/mL) | 62.5 (≈ 17.5 µg/mL) | 62.5 (≈ 17.5 µg/mL) | 15.6 (≈ 4.36 µg/mL) | > 125 | 62.5 (≈ 17.5 µg/mL) | 125 (≈ 34.9 µg/mL) | 62.5 (≈ 17.5 µg/mL) | > 125 | > 125 | 31.2 (≈ 8.73 µg/mL) | 125 (≈ 34.9 µg/mL) | 125 (≈ 34.9 µg/mL) | 125 (≈ 34.9 µg/mL) | > 125 | 125 (≈ 34.9 µg/mL) | 125 (≈ 34.9 µg/mL) | 31.2 (≈ 8.73 µg/mL) | 3.56 | > 125 | MIC50 [21]: 62.5 µM (≈ 17.5 µg/mL); MIC90 [22]: 125 µM (≈ 34.9 µg/mL); MIC90 (Staphylococcus aureus [23]): 31.2 µM (≈ 8.73 µg/mL) |
| CCOc1ccccc1/C=C/c1ccc2c(Cl)cc(Cl)c(O)c2n1 | 7.81 (≈ 2.81 µg/mL) | 0.49 (≈ 0.177 µg/mL) | 0.98 (≈ 0.353 µg/mL) | 3.9 (≈ 1.4 µg/mL) | 15.6 (≈ 5.63 µg/mL) | 0.98 (≈ 0.353 µg/mL) | 3.9 (≈ 1.4 µg/mL) | 7.81 (≈ 2.81 µg/mL) | 0.98 (≈ 0.353 µg/mL) | 0.98 (≈ 0.353 µg/mL) | 7.81 (≈ 2.81 µg/mL) | 1.95 (≈ 0.702 µg/mL) | 3.9 (≈ 1.4 µg/mL) | 0.49 (≈ 0.177 µg/mL) | 0.98 (≈ 0.353 µg/mL) | 1.95 (≈ 0.702 µg/mL) | 3.9 (≈ 1.4 µg/mL) | 1.39 (≈ 0.501 µg/mL) | 5.67 | 15.6 (≈ 5.63 µg/mL) | MIC50 [21]: 1.52 µM (≈ 0.548 µg/mL); MIC90 [22]: 3.9 µM (≈ 1.4 µg/mL); MIC90 (Staphylococcus aureus [23]): 3.9 µM (≈ 1.4 µg/mL) |
| CCOc1ccc(/C=C/c2ccc3c(Cl)cc(Cl)c(O)c3n2)cc1 | 125 (≈ 45 µg/mL) | 125 (≈ 45 µg/mL) | 125 (≈ 45 µg/mL) | 125 (≈ 45 µg/mL) | > 125 | > 125 | 125 (≈ 45 µg/mL) | 125 (≈ 45 µg/mL) | 125 (≈ 45 µg/mL) | 125 (≈ 45 µg/mL) | 125 (≈ 45 µg/mL) | > 125 | > 125 | 125 (≈ 45 µg/mL) | 125 (≈ 45 µg/mL) | 125 (≈ 45 µg/mL) | > 125 | 125 (≈ 45 µg/mL) | 5.67 | > 125 | MIC50 [21]: 125 µM (≈ 45 µg/mL); MIC90 [22]: 125 µM (≈ 45 µg/mL); MIC90 (Staphylococcus aureus [23]): 125 µM (≈ 45 µg/mL) |
| Oc1cccc(/C=C/c2ccc3cccc(O)c3n2)c1 | 500 (≈ 132 µg/mL) | > 125 | > 125 | 125 (≈ 32.9 µg/mL) | > 125 | > 125 | > 125 | 125 (≈ 32.9 µg/mL) | > 125 | > 125 | 125 (≈ 32.9 µg/mL) | > 125 | > 125 | > 125 | > 125 | > 125 | > 125 | > 125 | 3.95 | > 125 | MIC50 [21]: > 125 µM; MIC90 [22]: 250 µM (≈ 65.8 µg/mL); MIC90 (Staphylococcus aureus [23]): 125 µM (≈ 32.9 µg/mL) |
| OC(Cn1cncn1)(Cn1cncn1)c1ccc(F)cc1F [FLUCONAZOLE] | – | 0.24 (≈ 0.0735 µg/mL) | – | – | > 125 | 0.98 (≈ 0.3 µg/mL) | – | – | 0.12 (≈ 0.0368 µg/mL) | 0.12 (≈ 0.0368 µg/mL) | – | – | > 125 | 0.06 (≈ 0.0184 µg/mL) | > 125 | 0.48 (≈ 0.147 µg/mL) | > 125 | – | – | > 125 | – |
